Legend:
PAMPA assay = type: in vitro ADME; conditions: pH 7.4
Description: PAMPA assay was performed by BioAssay Systems Services or Bristol Myers Squibb. The method used by BioAssay Systems Services is described below.
Stock solutions in DMSO for all compounds (10 mM) were thawed. The assay was performed in duplicate by following the PAMPA-096 procedure for sample plating. 4% Lecithin in dodecane solution was prepared by resuspending the dried lecithin with 750 μL dodecane. PBS pH 7.4 was used as the diluent. Two sets of plates and equilibrium solutions were incubated for 4 hours at room temperature. Acceptor and equilibrium solutions were analyzed in a UV plate. OD280 nm was used for High Permeability Control (chloramphenicol). OD270 nm was used for Medium Permeability Control (diclofenac) and Low Permeability Control (theophylline). OD254 nm was used for the test compounds.
Data analysis was performed by using the peak absorbance for each respective test compound and Permeability Control to determine the Permeability Rate (Pe) via the following equation: […]
where ODA is the absorbance of Acceptor Solution, ODE is the absorbance of the Equilibrium Standard, and C is determined by the equation below: […]
where Donor Volume (VD) is 0.2 cm^3, Acceptor Volume (VA) is 0.3 cm^3, and Membrane Area (Area) is 0.24 cm^2.

CXCR4 = CXCR4 (Homo sapiens, UniProt P61073); experiment: cAMP assay in CXCR4-CHO-Glo cells (GloSensor, forskolin + SDF-1α); type: cell-based; parameters: expressed in transfected cells
CXCR4, sequence (P61073 whole entry): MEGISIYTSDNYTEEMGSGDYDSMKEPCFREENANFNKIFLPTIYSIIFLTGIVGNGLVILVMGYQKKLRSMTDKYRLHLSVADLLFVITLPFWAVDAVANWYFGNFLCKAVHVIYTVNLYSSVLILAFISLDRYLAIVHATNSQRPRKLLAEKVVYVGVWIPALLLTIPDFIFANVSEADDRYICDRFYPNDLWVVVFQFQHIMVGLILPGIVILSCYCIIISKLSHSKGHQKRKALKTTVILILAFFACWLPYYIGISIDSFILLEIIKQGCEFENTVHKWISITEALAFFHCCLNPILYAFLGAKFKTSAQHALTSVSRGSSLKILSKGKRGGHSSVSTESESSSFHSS
Description: Materials, reagents, and instrument—Advanced DMEM (Gibco), trypsin EDTA (0.05%, phenol red), L-glutamine, HBSS buffer with and without Ca^2+/Mg^2+ (Gibco), antibiotic-antimycotic (Gibco), hygromycin B, and geneticin selective antibiotic (G418 sulfate) were purchased from Invitrogen. Forskolin (Tocris), SDF-1α (R&D Systems), HEPES (Sigma Aldrich), FBS (Atlanta Biologicals), D-luciferin (Gold Biotechnology), sterile 60 mm tissue culture dishes, and 96-well sterile tissue culture plates were purchased from Corning.
The assay targeted CXCR4 expressed in CHO-gloSensor cells. It monitored GPCR activation based on forskolin-stimulated cAMP production in cells. The assay used a genetically encoded biosensor with its cAMP binding domain fused to luciferase. Binding of cAMP to the cAMP binding domain changed the conformation of the biosensor, leading to the activation of luciferase. The intensity of the luciferase signal (light output) resulted from the oxidation of D-luciferin to oxyluciferin is proportional to the amount of cAMP produced in the cells.
The assay was performed in triplicate using live cells in 96-well tissue culture plates. Cells were pre-incubated in the dark at room temperature for one hour in the presence of D-luciferin. Bioluminescence was quantified before and after the agonist/antagonist addition. Stock solution of forskolin and SDF-1a, was prepared in Locke-Luc buffer. Stock solutions of the test compounds were prepared in DMSO (10 mM); they were diluted by Locke's buffer for use in the assay.
CHO-Glo cells, a cell line stably expressing the GloSensor cAMP biosensor (Promega), were transfected with cDNA encoding human CXCR4 in Pires-AcGFP1 (Clontech) and a stable cell line was isolated (CXCR4-CHO-Glo cells). The CXCR4-CHO-Glo cells were grown to confluency on 60 mm tissue culture dishes. After trypsinization, the cells were plated on 96-well plates and incubated overnight. The next day, culture media in each well was aspirated and replaced with 100 μL Locke's buffer containing 4 mM D-luciferin, followed by incubation in the dark for one hour. Before the addition of agonist/antagonist, each plate was read five times at 2 min intervals to obtain basal bioluminescence values from each well. The average of these five pre-readings was used to normalize each well's response to account for differences in GloSensor expression and cell density. After five pre-readings, cAMP formation was initiated with the addition of 50 μL solution of test compound (TC) in Locke Luc buffer containing forskoline and SDF-1α. […] Luminescence was measured immediately after the addition of the antagonist solution. The measurements were taken every two minutes for 30 minutes in kinetics mode after antagonist addition. IC50 values were calculated from the 4-parameter logistic equation using Prism GraphPad.

in vitro = conditions: mouse, 10 min, 3 µM, pH 7.4
Description: Metabolic stability assay was performed at Emory University's Department of Chemistry or by Bristol Myers Squibb. The method used by Emory University's Department of Chemistry is described below.
Each method was developed in the presence of an internal standard (ISTD) d5-7-ethoxy coumarin. The column temperature was maintained at 40° C. for most of the samples otherwise noted. The detection was operated in the Agilent JetStream electrospray positive ionization using multiple reaction monitoring mode (MRM).
Other MS conditions were as follows: dwell time 100 ms; gas flow 10 L/min; nebulizer pressure 45 psi; delta EMV 200 V; fragmentor voltage and collision energy for individual compounds vary.
Test compounds were dissolved in 100% DMSO or 100% MeOH to make 10 mM stock solutions. Verapamil (Sigma Aldrich) aided as a positive control and was dissolved in 100% DMSO to make 10 mM stock solutions. The 10 mM stock solution of test and control compounds were further diluted in potassium phosphate buffer (100 mM, pH 7.4) to 500 μM to ensure the organic solvent content was <0.2%. Human liver microsomes (HLMs) were purchased from Xenotech at 20 mg/mL. NADPH (Sigma Aldrich) 10 mM stocks were prepared in deionized water.
The HLM assay was prepared in a 1.5 mL Eppendorf tube with a final volume of 1100 μL for duplicate runs. Each reaction contained phosphate buffer (928.4 μL), liver microsomes (55 μL), and test compound resulting in a final concentration of 3 μM (6.6 μL of 500 μM). The reaction was initiated with 110 μL of 10 mM NADPH. […] Before centrifugation each of the aliquoted tubes were vortexed to make sure compounds were in the solution. The aliquots were centrifuged at 12,000 g for 5 min and the supernatant removed and placed in an LC-MS vial. Each time point was assessed using LC-MS and the area, based on the extracted ion, was integrated with respect to the ISTD. […] A no-NADPH negative control with test or control compound was performed in a single run (150 μL) at the longest time point. Controls were processed and analyzed like the test compounds. Each time point was run in duplicates followed by in-between blank washes to avoid the carryover and to equilibrate the column.
The MLM assay was performed using the same procedures as those described above for the HLM assay.

[1] = Metabolic stability assay, human liver microsomes (HLM); type: in vitro ADME; conditions: 10 min
Description: Controls were processed and analyzed like the test compounds.

| Papp at 4 h (PAMPA assay) | IC50 (CXCR4) | Liver Microsomes % rem. @ 10 min. M (in vitro) | Liver Microsomes % rem. @ 10 min. H [1] | Compound |
| --- | --- | --- | --- | --- |
| 13.1 ×10⁻⁶ cm/s |  |  |  | CN(C[C@H]1Cc2c(cccc2N2CCO[C@@H](CO)C2)CN1)[C@H]1CCCc2cccnc21 [EMU-322, ((R)-4-((R)-3-((methyl((S)-5,6,7,8-tetrahydroquinolin-8-yl)amino)methyl)-1,2,3,4-tetrahydroisoquinolin-5-yl)morpholin-2-yl)methanol] |
| 3 ×10⁻⁶ cm/s |  |  |  | c1cnc2c(c1)CCC[C@@H]2N(CCCN1CCNCC1)C[C@H]1Cc2c(cccc2N2CCOCC2)CN1 [EMU-184, (S)—N—(((R)-5-morpholino-1,2,3,4-tetrahydroisoquinolin-3-yl)methyl)-N-(3-(piperazin-1-yl)propyl)-5,6,7,8-tetrahydroquinolin-8-amine] |
| 16 ×10⁻⁶ cm/s |  |  |  | CN(C[C@H]1Cc2c(cccc2N2CCOCC2)CN1)[C@H]1CCOc2cccnc21 [EMU-319, (4S)—N-methyl-N-((5-morpholino-1,2,3,4-tetrahydroisoquinolin-3-yl)methyl)-3,4-dihydro-2H-pyrano[3,2-b]pyridin-4-amine] |
| 17.1 ×10⁻⁶ cm/s |  |  |  | C[C@H]1COCCN1c1cccc2c1C[C@H](CN(C)[C@H]1CCCc3cccnc31)NC2 [EMU-339, (S)—N-methyl-N—(((R)-5-((S)-3-methylmorpholino)-1,2,3,4-tetrahydroisoquinolin-3-yl)methyl)-5,6,7,8-tetrahydroquinolin-8-amine] |
| 10 ×10⁻⁶ cm/s |  |  |  | CCN1CCN(CCCN(C[C@H]2Cc3c(cccc3N3CCOCC3)CN2)[C@H]2CCCc3cccnc32)CC1 [EMU-275, (S)—N-(3-(4-ethylpiperazin-1-yl)propyl)-N—(((R)-5-morpholino-1,2,3,4-tetrahydroisoquinolin-3-yl)methyl)-5,6,7,8-tetrahydroquinolin-8-amine] |
| 16.6 ×10⁻⁶ cm/s |  |  |  | C[C@H]1CN(c2cccc3c2C[C@H](CN(C)[C@H]2CCCc4cccnc42)NC3)CCO1 [EMU-318, (S)—N-methyl-N—(((R)-5-((S)-2-methylmorpholino)-1,2,3,4-tetrahydroisoquinolin-3-yl)methyl)-5,6,7,8-tetrahydroquinolin-8-amine] |
| 12.3 ×10⁻⁶ cm/s |  |  |  | CN(C[C@H]1Cc2c(cccc2N2CC3CC2CO3)CN1)[C@H]1CCCc2cccnc21 (stereo in doubt) [EMU-325, (S)—N—(((R)-5-((1R,4R)-2-oxa-5-azabicyclo[2.2.1]heptan-5-yl)-1,2,3,4-tetrahydroisoquinolin-3-yl)methyl)-N-methyl-5,6,7,8-tetrahydroquinolin-8-amine] |
| 7.6 ×10⁻⁶ cm/s | 492 nM | 78.3% | 87.1% | CN(C[C@H]1Cc2c(cccc2N2CCN(C(N)=O)CC2)CN1)[C@H]1CCCc2cccnc21 [EMU-326, 4-((R)-3-((methyl((S)-5,6,7,8-tetrahydroquinolin-8-yl)amino)methyl)-1,2,3,4-tetrahydroisoquinolin-5-yl)piperazine-1-carboxamide] |
| 15.7 ×10⁻⁶ cm/s |  |  |  | C[C@@H]1COCCN1c1cccc2c1C[C@H](CN(C)[C@H]1CCCc3cccnc31)NC2 [EMU-338, (S)—N-methyl-N—(((R)-5-((R)-3-methylmorpholino)-1,2,3,4-tetrahydroisoquinolin-3-yl)methyl)-5,6,7,8-tetrahydroquinolin-8-amine] |
| 12.2 ×10⁻⁶ cm/s | 684 nM | 38.10% | 11.00% | CN(C)C(=O)N1CCN(c2cccc3c2C[C@H](CN(C)[C@H]2CCCc4cccnc42)NC3)CC1 [EMU-327, N,N-dimethyl-4-((R)-3-((methyl((S)-5,6,7,8-tetrahydroquinolin-8-yl)amino)methyl)-1,2,3,4-tetrahydroisoquinolin-5-yl)piperazine-1-carboxamide] |
| 19.2 ×10⁻⁶ cm/s |  |  |  | Cc1cnc(CN(C)C[C@H]2Cc3c(cccc3N3CCOCC3)CN2)c(C)c1 [EMU-260, (R)-1-(3,5-dimethylpyridin-2-yl)-N-methyl-N-((5-morpholino-1,2,3,4-tetrahydroisoquinolin-3-yl)methyl)methanamine] |
| 15.5 ×10⁻⁶ cm/s |  |  |  | C[C@@H]1CN(c2cccc3c2C[C@H](CN(C)[C@H]2CCCc4cccnc42)NC3)CCO1 [EMU-317, (S)—N-methyl-N—(((R)-5-((R)-2-methylmorpholino)-1,2,3,4-tetrahydroisoquinolin-3-yl)methyl)-5,6,7,8-tetrahydroquinolin-8-amine] |
| 16.5 ×10⁻⁶ cm/s |  |  |  | CN(C[C@H]1Cc2c(cccc2N2C[C@H]3CC[C@@H](C2)O3)CN1)[C@H]1CCCc2cccnc21 [EMU-295, (S)—N—(((R)-5-((1R,5S)-8-oxa-3-azabicyclo[3.2.1]octan-3-yl)-1,2,3,4-tetrahydroisoquinolin-3-yl)methyl)-N-methyl-5,6,7,8-tetrahydroquinolin-8-amine] |
| 22.6 ×10⁻⁶ cm/s |  |  |  | CN(CCCCN(C[C@H]1Cc2c(cccc2N2CCOCC2)CN1)[C@H]1CCCc2cccnc21)C1CCC(F)(F)CC1 [EMU-273, N1-(4,4-difluorocyclohexyl)-N1-methyl-N4-(((R)-5-morpholino-1,2,3,4-tetrahydroisoquinolin-3-yl)methyl)-N4-((S)-5,6,7,8-tetrahydroquinolin-8-yl)butane-1,4-diamine] |
